From BindingDB's records for doi:10.1016/j.bmc.2017.03.009 (Wuhan Institute of Technology, 2017)

What was measured:
[1] = Inhibition of HIV-1 reverse transcriptase E138K mutant infected in human MT4 cells assessed as protection against virus-induced cytopathic effect measured at 5 days post infection by MTT assay
[2] = Inhibition of HIV1 RES056 reverse transcriptase K103N/Y181C double mutant infected in human MT4 cells assessed as protection against virus-induced cytopathic effect measured at 5 days post infection by MTT assay

N#Cc1ccc(Nc2nccc(OCc3cc(F)ccc3Br)n2)cc1
EC50 [1]: > 190 µM
EC50 [2]: > 190 µM

N#Cc1ccc(Nc2nccc(OCc3cccc(Cl)c3)n2)cc1
EC50 [1]: > 153 µM
EC50 [2]: > 153 µM

COc1cc(COc2ccnc(Nc3ccc(C#N)cc3)n2)cc(OC)c1
EC50 [1]: 0.23 µM
EC50 [2]: > 44 µM

Cc1cc(C)nc(Sc2ccnc(Nc3ccc(C#N)cc3)n2)n1
EC50 [1]: > 224 µM
EC50 [2]: > 224 µM

COc1ccc(COc2ccnc(Nc3ccc(C#N)cc3)n2)cc1
EC50 [1]: > 102 µM
EC50 [2]: > 102 µM

N#Cc1ccc(Nc2nccc(OCc3ccccc3F)n2)cc1
EC50 [1]: 0.3 µM
EC50 [2]: > 151 µM

N#Cc1ccc(Nc2nccc(OCc3ccc4ccccc4c3)n2)cc1
EC50 [1]: 10 µM
EC50 [2]: > 212 µM

N#Cc1ccc(Nc2nccc(OCc3cccc(C(F)(F)F)c3)n2)cc1
EC50 [1]: > 118 µM
EC50 [2]: > 118 µM

N#Cc1ccc(Nc2nccc(OCc3cccc(Br)c3)n2)cc1
EC50 [1]: 5 µM
EC50 [2]: > 221 µM

N#Cc1ccc(Nc2nccc(OCc3ccccc3Cl)n2)cc1
EC50 [1]: > 146 µM
EC50 [2]: > 146 µM

N#Cc1ccc(Nc2nccc(OCc3cccnc3)n2)cc1
EC50 [1]: > 6.4 µM
EC50 [2]: > 6.4 µM

Cc1ccccc1COc1ccnc(Nc2ccc(C#N)cc2)n1
EC50 [1]: > 12 µM
EC50 [2]: > 12 µM

Cc1ccc(COc2ccnc(Nc3ccc(C#N)cc3)n2)cc1
EC50 [1]: 7.2 µM
EC50 [2]: > 81 µM

N#Cc1ccc(COc2ccnc(Nc3ccc(C#N)cc3)n2)cc1
EC50 [1]: > 209 µM
EC50 [2]: > 209 µM

N#Cc1ccc(Nc2nccc(OCc3ccc(Cl)cc3)n2)cc1
EC50 [1]: > 156 µM
EC50 [2]: > 156 µM

N#Cc1ccc(Nc2nccc(OCc3cccc4ccccc34)n2)cc1
EC50 [1]: 0.3 µM
EC50 [2]: > 7.7 µM

N#Cc1ccc(Nc2nccc(OCc3ccc(Br)cc3F)n2)cc1
EC50 [1]: 35.8 µM
EC50 [2]: > 141 µM

COc1cccc(COc2ccnc(Nc3ccc(C#N)cc3)n2)c1
EC50 [1]: 1.1 µM
EC50 [2]: > 118 µM

Cc1cccc(COc2ccnc(Nc3ccc(C#N)cc3)n2)c1
EC50 [1]: 1.18 µM
EC50 [2]: > 30 µM

N#Cc1ccc(Nc2nccc(OCc3cccc(F)c3)n2)cc1
EC50 [1]: 1.88 µM
EC50 [2]: > 105 µM

N#Cc1ccc(Nc2nccc(OCc3cccc(C#N)c3)n2)cc1
EC50 [1]: > 4.1 µM
EC50 [2]: > 4.1 µM

N#Cc1ccc(Nc2nccc(OCc3ccccc3)n2)cc1
EC50 [1]: 1.8 µM
EC50 [2]: > 13 µM

N#Cc1ccc(Nc2nccc(OCc3ccccc3Br)n2)cc1
EC50 [1]: > 130 µM
EC50 [2]: > 130 µM

N#Cc1ccc(Nc2nccc(OCc3ccc(Br)cc3)n2)cc1
EC50 [1]: > 16 µM
EC50 [2]: > 16 µM

N#Cc1ccc(Nc2nccc(OCc3ccc(F)cc3)n2)cc1
EC50 [1]: > 81 µM
EC50 [2]: > 81 µM

N#Cc1ccc(Nc2nccc(OCc3ccccc3C#N)n2)cc1
EC50 [1]: > 113 µM
EC50 [2]: > 113 µM

COc1ccccc1COc1ccnc(Nc2ccc(C#N)cc2)n1
EC50 [1]: 2.1 µM
EC50 [2]: > 8.9 µM

N#Cc1ccc(Nc2nccc(NCc3ccccn3)n2)cc1
EC50 [1]: 0.24 µM
EC50 [2]: > 8.5 µM

CN(C)c1ccnc(Nc2ccc(C#N)cc2)n1
EC50 [1]: > 34 µM
EC50 [2]: > 34 µM

N#Cc1ccc(Nc2nccc(OCc3ccccc3C(F)(F)F)n2)cc1
EC50 [1]: > 173 µM
EC50 [2]: > 173 µM
